Test results taken from patent publication US8969249B2, “Synthesis and biological activity of bicyclic ABA analogs” (National Research Council of Canada, priority 2004, dated 2015).

How the values were obtained:
[1] = tested on: Arabidopsis thaliana (Columbia wild type) seeds; assay: seed germination inhibition assay; assay type: in vivo; conditions: for germination index: lowest concentration of 0.33 μM
Description: (§1) In yet an additional embodiment, bicyclic ABA and analogs of the present invention may be used in a process for inhibiting seed germination. In one embodiment, bicyclic ABA is used in a germination assay of Arabidopsis thaliana (Columbia wild type) seeds over a wide range of concentrations (0.33-33 μM). Similar treatments were performed for ABA [1] (both enantiomers) to allow for a direct comparison between ABA and bicyclic ABA (both enantiomers). The results are expressed in terms of germination indices, which summarize the rate and extent of germination over the time of the experiment at a given concentration. […] At the lowest concentration of 0.33 μM, the germination index for (+)-ABA (1) was almost 0.4, compared with less than 0.1 in the case of (+) bicyclic ABA [8].
as §1, with “Bicyclic” for “In yet an additional embodiment, bicyclic”, “produced using the process” for “and analogs”, “was also studied” for “may be used in a process for inhibiting seed germination. In one embodiment, bicyclic ABA is used”, “μM) (FIG. 7).” for “μM).”, “[1]” for “(1)”, “[8]. […] It was only active at concentrations of ≧1 μM.” for “[8].”
Arabidopsis thaliana (Columbia wild type) seed germination inhibition studies were performed as described by Cutler et. al. (23). The treatments were performed in duplicate with 50 seeds per plate and incubated at 24° C. with 16 hr days and 8 hr nights for the duration of the test (7 days).

[2] = tested on: suspension-cultured cells of maize (Black Mexican Sweet); assay: growth inhibition assay using suspension-cultured corn cells; assay type: cell-based; conditions: for inhibition of growth of suspension-cultured maize cells: dose-dependent over concentration range 0.1-10.0 μM
Source text: In yet another embodiment, a process for inhibiting plant cell growth using the bicyclic ABA and analogs of the present invention is described. The ability of bicyclic ABA and analogs of the present invention to inhibit plant cell growth may be assayed with a growth inhibition assay. In one assay, suspension-cultured corn cells are used in a well characterized experimental system that has been useful for comparing the biological activity and metabolism of ABA and ABA analogs (6).
The growth inhibition assay using suspension-cultured corn cells is a well characterized experimental system that has been very useful for comparing the biological activity and metabolism of ABA and ABA analogs (6).
Maize cell cultures were treated as described by Balsevich et. al. (6). The cultures were incubated on a rotary shaker for 4 days, and the cells were separated from the medium by vacuum filtration and weighed immediately. The effect of ABA and bicyclic ABA on cell growth was determined at various concentrations (0-10 μM) by calculating the percentage increase in fresh weight [(final weight×100/initial weight)−100)]. Measurements were performed in triplicate and average values were normalized to a control (untreated) value of 100%.

Row | Compound | concentrations at which active/effective in inhibiting germination ([1]; tested 0.33-33 μM, 7-day test) | germination index ([1]; 7-day test) | inhibition of growth of suspension-cultured maize cells [2] | germination inhibition compared with comparator (in words) ([1]; (+)-[8] versus (+) ABA, (−)-[8] versus (+)-[8]) | inhibition of seed germination (in words) ([1]; all concentrations (0.33-33 μM), 7-day test period) | inhibitory activity (cell growth) relative to (+)-ABA ([2]; BMS maize suspension cells, 4 days, FIG. 6)
1 | abscisic acid [(−) enantiomer of ABA [1], reference compound] | ≥ 3.33 µM |  |  |  |  | 
2 | CC1=CC(=O)CC(C)(C)C1(O)/C=C/C(C)=C\C(=O)O (single isomer, unassigned; (+)) [(+)-ABA, abscisic acid, reference compound] |  | ~0.4 | inhibited the growth |  |  | 
3 | CC(=C/C(=O)O)/C=C/[C@@]1(O)c2ccccc2C(=O)CC1(C)C [(+)-[8], (2Z,4E)-5-((1S)-1-Hydroxy-2,2-dimethyl-4-oxo-1,2,3,4-tetrahydro-naphthalen-1-yl)-3-methyl-penta-2,4-dienoic acid] |  | less than 0.1 | inhibited the growth | more effective germination inhibitor than (+) ABA | highly effective | ~10 fold
